Consider 14 molecules from the SangsterLogP compilation.

In general, logP refers to a log measure of how a compound divides between an organic and an aqueous phase. Read a low logP as a more hydrophilic compound.

SMILES strings stand for the structures.

Turning to `CCOC(=O)OC1OC2OC3(C)CCC4C(C)CCC(C1C)C24OO3` (centres undefined), the logP was determined as 2.37.
Under `CCCOC1OC2OC3(C)CCC4C(C)CCC(C1C)C24OO3` (centres undefined) stands 3.65; under `CCCC(=O)OC1OC2OC3(C)CCC4C(C)CCC(C1C)C24OO3` (centres undefined), 2.99; under `CO[C@@H]1O[C@@H]2O[C@@]3(C)CC[C@H]4[C@H](C)CC[C@@H]([C@H]1C)[C@@]24OO3` (relative stereo), 2.86.
Take `CC1CCC2C(C)C(OC(=O)Oc3ccccc3)OC3OC4(C)CCC1C32OO4` (centres undefined): the logP worked out at 3.38.
As to `CCO[C@H]1O[C@@H]2O[C@@]3(C)CC[C@H]4[C@H](C)CC[C@@H]([C@H]1C)[C@@]24OO3`, the logP is 3.29.
For `CC1CCC2C(C)C(OCc3ccccc3)OC3OC4(C)CCC1C32OO4` (centres undefined), the logP was found to be 4.2.
In the case of `CCCOC(=O)OC1OC2OC3(C)CCC4C(C)CCC(C1C)C24OO3` (centres undefined), the logP came to 3.11.
On to `CC(C)OC1OC2OC3(C)CCC4C(C)CCC(C1C)C24OO3` (centres undefined), for which the logP is 3.49.
`CC(=O)OC1OC2OC3(C)CCC4C(C)CCC(C1C)C24OO3` (centres undefined) displayed a lipophilicity (logP) of 2.08.
Take `CCC(=O)OC1OC2OC3(C)CCC4C(C)CCC(C1C)C24OO3` (centres undefined): the logP came out at 2.33.
The value for `COCCOCCOC1OC2OC3(C)CCC4C(C)CCC(C1C)C24OO3` (centres undefined) was 3.51.
The value for `CC1CCC2C(C)C(OC(=O)C=Cc3ccccc3)OC3OC4(C)CCC1C32OO4` (centres undefined) was 3.83; that for `CC(C)CCOC1OC2OC3(C)CCC4C(C)CCC(C1C)C24OO3` (centres undefined) was 4.07.
